BindingDB's records for PubMed 1706716 (Duke University, 1991)

Assays:
[1] = target: T1, Alpha-1B adrenergic receptor (Rattus norvegicus, UniProt P15823)
T1 sequence (P15823 whole entry): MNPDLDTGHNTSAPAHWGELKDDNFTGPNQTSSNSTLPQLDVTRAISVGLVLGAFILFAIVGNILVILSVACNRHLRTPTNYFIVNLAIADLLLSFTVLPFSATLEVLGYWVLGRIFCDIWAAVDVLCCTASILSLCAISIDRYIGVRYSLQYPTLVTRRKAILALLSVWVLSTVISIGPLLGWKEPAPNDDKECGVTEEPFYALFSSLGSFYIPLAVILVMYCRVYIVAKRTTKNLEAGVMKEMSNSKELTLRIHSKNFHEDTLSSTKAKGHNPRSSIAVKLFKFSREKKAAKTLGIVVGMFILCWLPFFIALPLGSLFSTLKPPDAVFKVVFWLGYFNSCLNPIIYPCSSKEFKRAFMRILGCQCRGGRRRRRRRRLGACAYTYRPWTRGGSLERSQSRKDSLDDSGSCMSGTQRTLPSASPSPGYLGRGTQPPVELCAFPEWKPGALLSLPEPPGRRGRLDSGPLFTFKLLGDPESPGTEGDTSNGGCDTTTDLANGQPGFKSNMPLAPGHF

[2] = target: T2, Alpha-1A adrenergic receptor (Bos taurus, UniProt P18130)
T2 sequence (P18130 whole entry): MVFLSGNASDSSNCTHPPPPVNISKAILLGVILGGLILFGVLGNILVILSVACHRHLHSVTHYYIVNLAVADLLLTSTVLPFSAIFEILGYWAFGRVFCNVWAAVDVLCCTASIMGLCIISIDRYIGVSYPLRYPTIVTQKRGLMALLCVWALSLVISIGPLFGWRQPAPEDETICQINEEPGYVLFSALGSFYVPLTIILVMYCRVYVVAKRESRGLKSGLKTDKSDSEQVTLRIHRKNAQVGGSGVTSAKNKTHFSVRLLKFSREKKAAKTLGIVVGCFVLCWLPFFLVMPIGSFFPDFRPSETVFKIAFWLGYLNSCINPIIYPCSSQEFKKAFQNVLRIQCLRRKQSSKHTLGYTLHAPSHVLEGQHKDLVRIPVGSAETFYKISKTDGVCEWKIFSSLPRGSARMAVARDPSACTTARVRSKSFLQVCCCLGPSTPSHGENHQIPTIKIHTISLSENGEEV

[3] = target: T3, Alpha-1A adrenergic receptor (Rattus norvegicus, UniProt P43140)
T3 sequence (P43140 whole entry): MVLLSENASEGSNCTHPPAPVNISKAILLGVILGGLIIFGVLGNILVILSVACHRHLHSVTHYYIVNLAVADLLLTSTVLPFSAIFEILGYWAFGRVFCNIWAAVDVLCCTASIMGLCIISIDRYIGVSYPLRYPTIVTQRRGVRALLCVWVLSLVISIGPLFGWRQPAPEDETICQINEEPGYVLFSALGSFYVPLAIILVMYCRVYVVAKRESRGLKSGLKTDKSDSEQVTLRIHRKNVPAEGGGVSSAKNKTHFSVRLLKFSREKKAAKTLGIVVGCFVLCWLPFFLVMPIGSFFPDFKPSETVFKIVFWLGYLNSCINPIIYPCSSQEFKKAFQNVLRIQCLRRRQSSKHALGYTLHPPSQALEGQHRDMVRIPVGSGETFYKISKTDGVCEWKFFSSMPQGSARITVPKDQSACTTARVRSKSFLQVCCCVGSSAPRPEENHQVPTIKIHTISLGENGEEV

Compound	Ki [1]	Ki [2]	Ki [3]
COc1ccc(OC)c(C(O)C(C)N)c1 (stereo not drawn)	1610 nM	> 10000 nM	> 10000 nM
O=C(NC1CCN(CCc2c[nH]c3ccccc23)CC1)c1ccccc1 [N-{1-[2-(1H-Indol-3-yl)-ethyl]-piperidin-4-yl}-benzamide(indoramin)]	226 nM	–	611 nM
COc1cccc(OC)c1OCCNCC1Oc2ccccc2OC1c1ccccc1 (stereo not drawn) [NSC_185453]	28.6 nM	0.68 nM	2.1 nM
NCC(O)c1ccc(O)c(O)c1 (stereo not drawn) [Noradrenaline,(+)]	–	9730 nM	–
CNC[C@H](O)c1cccc(O)c1 [PHENYLEPHRINE]	–	> 10000 nM	–
Cc1ccc(N(CC2=NCCN2)c2cccc(O)c2)cc1 [SMR000059054]	–	15.3 nM	–
Cc1cc(C(C)(C)C)c(O)c(C)c1CC1=NCCN1 [SMR000059324]	–	114 nM	–
COC(=O)[C@@H]1[C@H]2C[C@H]3c4[nH]c5ccccc5c4CCN3C[C@@H]2CC[C@@H]1O [yohimbic acid methyl ester]	517 nM	–	–
